Data set [1] has as its system rats. Nature of the data set: Standard "open field" test (50 percent decrease in the number of diameter crossings vs untreated controls). The class given is in vivo. To be noted: Rattus norvegicus, po, read-out: ED50 (dosage which caused a 50 percent decrease in the number of diameter crossings). An excerpt: The dosage which caused a 50 percent decrease (in comparison to the untreated controls) in the number of diameter crossings is expressed as the ED50.

A short description of data set [2]: Toxicity (mouse), p.o. To be noted: in vivo, po.

The term ED50 denotes the midpoint of the dose-response relation. The LD50 is the dose expected to kill half of the subjects tested.

For the molecule `Nc1ccc(OCCN2CC=C(c3ccc(F)cc3)CC2)cc1` [p-[2-[4-(p-fluoro-phenyl)-3,6-dihydro-1(2H)-pyridyl]-ethoxy]-aniline], the ED50 in data set [1] was determined as 0.6 mg/kg. Further, in data set [2], the LD50 was 250 to 500 mg/kg.

Turning to `CCC(=O)Nc1ccc(OCCN2CC=C(c3ccc(F)cc3)CC2)cc1` [4'-[2-[4-(p-fluoro-phenyl)-3,6-dihydro-1(2H)-pyridyl)-ethoxy]-propionanilide], the ED50 in data set [1] stood at 0.6 mg/kg. Besides, the LD50 in data set [2] lay in the range of 150 to 300 mg/kg.

`CC(=O)Nc1ccc(OCCN2CC=C(c3ccc(F)cc3)CC2)cc1` [4'-{2-[4-(p-fluorophenyl)-3,6-dihydro-1(2H)-pyridyl]ethoxy}acetanilide]: the ED50 in data set [1] came to 0.6 mg/kg. This molecule displayed a 50% lethal dose (LD50) in data set [2] of 250 to 500 mg/kg.

Values taken from US3951987A, “Tetrahydropyridine derivatives” (priority 1975, dated 1976).
